From patent publication US5506204A, “Muramyl compounds for treatment of septic shock” (Peptech (UK) Limited, priority 1991, dated 1996)
Read-outs that look alike come from different tables or passages of the source.

Legend:
[1] = test system: patients undergoing surgery for colon cancer
Procedure: All the patients entering this trial were about to undergo major abdominal surgery for the resection of carcinoma of the colon.
(§1) In the treated group GMDP was given per os on days -2 and -1 before the operation, and subcutaneously on days +1, +2 and +3 after the operation at a dose of 1-2 mg/day. The total dose of GMDP was […]. On day +5 after the operation neutrophil function was again assessed in all patients by the same parameters as specified above.
The patients were monitored for post-operative sepsis for four weeks following the operation. The septic complications which were scored included disseminated sepsis, pneumonia, peritonitis and abdominal abscesses, all of which are known to lead to septic shock.

neutrophils [2] = test system: neutrophils
Procedure: (§2) Neutrophils were isolated from peripheral blood. 3.5 ml of heparinised blood was spread over M-PRM medium (Flow Laboratories) and centrifuged for 40 minutes at 400g at 20° C. […] The cells were adjusted to a concentration of 2×10^6 ml.
Adhesion: 100 μl of neutrophil suspension were placed in the wells of a flat-bottomed culture dish, and incubated at 37° C. for 60 minutes. After washing off the non-adhesive cells, the adhered neutrophils were fixed with ethanol and stained with Romanovsky-Giemsa dye. After washing out the free dye, the cell-associated dye was dissolved in isopropanol, and the optical density (OD650) of the solution was determined using an "ELISA II" microprocessor (Boehringer). The number of adherent cells was calculated by reference to a standard curve.
as §1

neutrophils [3] = test system: neutrophils; remark: listed apart in the source
Procedure: as §2
Chemiluminescence: Luminol-dependent chemiluminescence was measured on a 1251 Luminometer (LKB).
(§3) For chemiluminescence, superoxide anion production, myeloperoxidase and acid phosphatase both the spontaneous and induced reactions were measured. Induction was performed by exposing the cells to opsonized zymosan (30 μl, 20 mg/ml) for 30 minutes at 37° C. before the assay.
as §1

neutrophils [4] = test system: neutrophils; remark: listed apart in the source
Procedure: as §2
(§4) Myeloperoxidase: 100 μl of substrate mixture, consisting of 0.04% orthophenylene diamine (Sigma) and 0.014% hydrogen peroxide in phosphate citrate buffer (pH 5.0) was added to cells and incubated for 10 minutes before the reaction was stopped with 100 μl of 10% sulphuric acid. The optical density at 492 mu was measured with a Multiscan Titertek Plus (Flow Laboratories).
as §3, §1

neutrophils [5] = test system: neutrophils; remark: listed apart in the source
Procedure: as §2
(§5) Acid phosphatase: 50 μl of substrate mixture, consisting of 0.24% paranitrophenyl phosphate (Boehring) and 0.84% NaCl in a sodium citrate buffer (pH 5.5) were added to cells and incubated for 30 minutes at 30° C. before the reaction was by adding 100 μl of 0.2M NaOH. The optical density at 405 mu was measured with a Multiscan Titertek Plus (Flow Laboratories).
as §3, §1

[6] = test system: patients suffering from acute sepsis; conditions: GMDP parenterally 1-2 mg/day for five days
Procedure: The patients entering this trial were already suffering from serious systemic bacterial sepsis arising as a result of destructive cholecystitis, abscesses of the abdominal cavity, peritonitis, pancreonecrosis and post-operative pneumonia.
(§6) On day before treatment with GMDP (day -1) the neutrophil function of all patients was measured by the tests described above in Example 1. In the GMDP-treated group, GMDP was administered parenterally at a dose of 1-2 mg/day for five consecutive days. The total dose of GMDP was […].

neutrophils [7] = test system: neutrophils; remark: listed apart in the source
Procedure: as §2
Superoxide anion production was determined by the NBT test (Merck).
as §3, §6
(§7) One day after the cessation of GMDP treatment (day +6), neutrophil function was again measured in all patients.

neutrophils [8] = test system: neutrophils; remark: listed apart in the source
Procedure: as §2, §4, §3, §6, §7

neutrophils [9] = test system: neutrophils; remark: listed apart in the source
Procedure: as §2, §5, §3, §6, §7

TNFα = experiment: Example 8: TNF induction by muramyl peptides; format: in vivo, BALB/c mice; conditions: C. parvum-primed mice, 100 μg (equimolar) IP, LPS 25 μg 18 hours later; FIG. 6
Procedure: Here, the muramyl peptides tested were prototype MDP, GMDP, GMDP-A, GMDP-OBu, GMDP-Lys(St), GMDPA-Lys(St), GMDP-Benz and Thr-MDP.
BALB/mice (6 mice/groups) were injected intraperitoneally with 1.4 mg of dead C. parvum (0.2 ml of a 7 mg/ml suspension). Mice were subsequently (2 weeks later) treated with saline, MDP (100 μg) or analogue (100 μg) in 0.5 ml saline IP. The dose of each `MDP` was adjusted so that animals received equimolar amounts. […] (25 μg) was injected 18 hours after the injection of MDP/analogue and the mice were subsequently sacrificed and bled out. TNF was determined by standard capture ELISA assay.

[10] = opsonized zymosan, Day -3 (before treatment)
[11] = opsonized zymosan, Day -3 to Day +5
[12] = opsonized zymosan, Day -1 (before treatment)
[13] = opsonized zymosan, Day -1 to Day +6

CC(=O)NC1C(OC2C(CO)OC(O)C(NC(C)=O)C2OC(C)C(=O)NC(C)C(=O)NC(CCC(=O)O)C(N)=O)OC(CO)C(O)C1O [GMDP, N-acetyl-D-glucosaminyl-(β1-4)-N-acetylmuramyl-L-alanyl-D-isoglutamine]
No of Patients with Septic Complications ([1]; 16 treated patients, GMDP 1-2 mg/day per os days -2,-1, s.c. days +1 to +3, monitored 4 weeks): 3
Mortality (%) ([1]; GMDP before and after operation, control 15%): 6.25%
Incidence of Septic Complications (%) ([1]; GMDP before and after operation, control 50%): 18.75%
Adhesion (neutrophils [2]; Day +5 after operation): 47.9 ± 12.6 O.D. 650μ
Adhesion (neutrophils [2]; Day -3 (before treatment)): 39.8 ± 5.4 O.D. 650μ
Adhesion % Change (neutrophils [2]; Day -3 to Day +5): +20.4%
Chemiluminescence, spontaneous (neutrophils [3]; Day +5): 3.37 ± 0.70 mV
Chemiluminescence, spontaneous (neutrophils [3]; Day -3 (before treatment)): 1.82 ± 0.07 mV
Chemiluminescence, spontaneous % Change (neutrophils [3]; Day -3 to Day +5): +85.2%
Chemiluminescence, induced (neutrophils [3]; opsonized zymosan, Day +5): 15.8 ± 4.2 mV
Chemiluminescence, induced (neutrophils [3]; [10]): 11.3 ± 2.1 mV
Chemiluminescence, induced % Change (neutrophils [3]; [11]): +39.8%
Myeloperoxidase, spontaneous (neutrophils [4]; Day +5): 1075 ± 178.3 O.D. 492μ
Myeloperoxidase, spontaneous (neutrophils [4]; Day -3 (before treatment)): 1145 ± 204.1 O.D. 492μ
Myeloperoxidase, spontaneous % Change (neutrophils [4]; Day -3 to Day +5): -6.1%
Myeloperoxidase, induced (neutrophils [4]; opsonized zymosan, Day +5): 948.3 ± 205 O.D. 492μ
Myeloperoxidase, induced (neutrophils [4]; [10]): 948.3 ± 205 O.D. 492μ
Myeloperoxidase, induced % Change (neutrophils [4]; [11]): +11.2%
Acid phosphatase, spontaneous (neutrophils [5]; Day +5): 114.9 ± 2.4 O.D. 405μ
Acid phosphatase, spontaneous (neutrophils [5]; Day -3 (before treatment)): 133.8 ± 75 O.D. 405μ
Acid phosphatase, spontaneous % Change (neutrophils [5]; Day -3 to Day +5): -14.1%
Acid phosphatase, induced (neutrophils [5]; opsonized zymosan, Day +5): 120.8 ± 3.2 O.D. 405μ
Acid phosphatase, induced (neutrophils [5]; [10]): 172.3 ± 18.8 O.D. 405μ
Acid phosphatase, induced % Change (neutrophils [5]; [11]): -29.94%
No of patients with progression of septic complications ([6]; 14 treated patients): 4
Mortality (%) ([6]; control 27%): 14.3%
Incidence of progression of septic complications (%) ([6]; control 61%): 28.6%
Superoxide, spontaneous (neutrophils [7]; Day +6): 84.3 ± 8.7 O.D. 540μ
Superoxide, spontaneous (neutrophils [7]; Day -1 (before treatment)): 55.5 ± 6.4 O.D. 540μ
Superoxide, spontaneous % Change (neutrophils [7]; Day -1 to Day +6): +51.9%
Superoxide, induced (neutrophils [7]; [12]): 92.1 ± 3.21 O.D. 540μ
Superoxide, induced % Change (neutrophils [7]; [13]): +53.2%
Myeloperoxidase, spontaneous (neutrophils [8]; Day +6): 595.2 ± 48.3 O.D. 492μ
Myeloperoxidase, spontaneous (neutrophils [8]; Day -1 (before treatment)): 504.5 ± 118 O.D. 492μ
Myeloperoxidase, spontaneous % Change (neutrophils [8]; Day -1 to Day +6): +17.9%
Myeloperoxidase, induced (neutrophils [8]; opsonized zymosan, Day +6): 587.1 ± 96.3 O.D. 492μ
Myeloperoxidase, induced (neutrophils [8]; [12]): 520.3 ± 60.1 O.D. 492μ
Myeloperoxidase, induced % Change (neutrophils [8]; [13]): +12.8%
Acid phosphatase, spontaneous (neutrophils [9]; Day +6): 251.3 ± 16.1 O.D. 405μ
Acid phosphatase, spontaneous (neutrophils [9]; Day -1 (before treatment)): 119.4 ± 10.1 O.D. 405μ
Acid phosphatase, spontaneous % Change (neutrophils [9]; Day -1 to Day +6): +110.5%
Acid phosphatase, induced (neutrophils [9]; opsonized zymosan, Day +6): 201 ± 14.3 O.D. 405μ
Acid phosphatase, induced (neutrophils [9]; [12]): 104.4 ± 3.6 O.D. 405μ
Acid phosphatase, induced % Change (neutrophils [9]; [13]): +92.5%
effect on LPS-induced TNFα production (TNFα): suppress TNFα production
